Results on 15 compounds are retold here after patent US9512125B2, “Substituted pyrazolo[3.4-D] pyrimidines as anti-inflammatory agents” (THE REGENTS OF THE UNIVERSITY OF CALIFORNIA, priority 2004, dated 2016).

Test [1] concerns HUVEC with or without PBMC (3C, 4H, SAG and LPS systems). The test is described as follows: BioMAP inflammation model systems (3C, 4H, SAG, LPS), cell-based ELISA profiling. Details: species or system human. As to conditions: 4 systems (3C, 4H, SAG, LPS); concentration of 5 micromolar; 24 h stimulation.
The test system of a further test is IFN-gamma signaling. The test is described as follows: Gamma interferon signaling inhibition in cell-based (BioMAP) assay. The arrangement: species or system human. To be noted: weakly inhibit T cell and monocyte activation (less than 50%) but inhibit IFN-gamma signaling and collagen production. The method, then: In another embodiment, the compounds of the invention are the subset of compounds of Formula (I) that are gamma interferon signaling inhibitors. […] Gamma interferon signaling inhibitors may be especially useful in treating the inflammation underlying multiple diseases including rheumatoid arthritis, systemic sclerosis, COPD, asthma, atherosclerosis, cirrhosis, pulmonary fibrosis, sarcoidosis, keloids, and renal fibrosis.
(§1) Human umbilical vein endothelial cells (HUVEC) were cultured as described in Kunkel et al., 2004, FASEB J 18:1279-1281. Peripheral blood mononuclear cells (PBMC) were prepared from buffy coats (Stanford Blood Bank, Stanford, Calif.) by centrifugation over Hisopaque-1077 (Sigma). Four assay systems, 3C, 4H, SAG, and LPS, were used. For the 3C system, HUVEC were cultured for 24 h in microtiter plates (Falcon; BD Biosciences), in the presence of cytokines IL-1β (1 ng/ml), TNF-α (5 ng/ml), and IFN-γ (20 ng/ml). For the 4H system, HUVEC were cultured in the presence of IL-4 (5 ng/ml) and histamine (10 μM). For the SAG system, HUVEC were cultured with PBMC (7.5×10^4) and SAG (20 ng/ml). For the LPS system, HUVEC were cultured with PBMC (7.5×10^4) and LPS (2 ng/ml). Compounds were added 1 h before stimulation and were present during the entire 24-h stimulation period. Cell-based enzyme-linked immunosorbent assay (ELISAs) were carried out as described. (See Kunkel et al., 2004, FASEB J 18:1279-1281.)

A further test concerns T cell activation. In words: T cell activation inhibition in cell-based (BioMAP) assay. Details: species or system human. The method, then:
T-cell activation inhibitors may be especially useful in treating the inflammation underlying arthritis, psoriasis, vasculitis, multiple sclerosis, IBD, asthma, atherosclerosis, or other inflammatory disease.
as §1

Test [2] concerns mouse peritoneal inflammation model. The test is described as follows: Mouse peritoneal inflammation model (thioglycollate). The format is in vivo. As to conditions: 10 mg/kg intraperitoneal single dose, thioglycollate stimulus, peritoneal lavage at 4 and 24 hours. The method, then: The following example illustrates the ability of a compound useful in the methods of the present invention to reduce neutrophil and monocyte recruitment, as well as to reduce the total number of leukocytes in a mouse peritoneal inflammation model.
A single dose (10 mg/kg in 200 μl) of an anti-inflammatory pyrazolopyrimidine compound of the present invention (compound 30 in Table 1, above) was administered intraperionteally to a group of 6 mice while another group of 6 mice received an intraperitoneal injection of vehicle only. Fifteen minutes later, an inflammatory stimulus (thioglycollate, 200 μl) was administered intraperitoneally to each mouse. Peritoneal lavage was collected at 4 and 24 hours subsequent to stimulus administration.
Inflammatory infiltrate was recovered by injection of 10 ml of Ca++/Mg++ free PBS, massaging, and withdrawal. Total recovered cells were counted on a hemacytometer. The results are presented in FIG. 2 (average+/−SD of 6 mice).
Neutrophils, monocytes, lymphocytes and eosinophils were enumerated by analyzing smears of the peritoneal wash stained with Wright-Geimsa stain. The results are presented in FIG. 3 (average+/−SD of 6 mice).

The next test deals with monocyte activation. The test is described as follows: Monocyte activation inhibition in cell-based (BioMAP) assay. Details: species or system human. To be noted: weakly inhibit T cell activation, strongly inhibit monocyte activation, MCP-1 and IL-8 (at least 50%) in a cell-based assay. The method, then:
as §1

The mark [3] stands for this setting: strongly inhibit T cell activation: at least one listed gene product inhibited by at least 50% in a cell-based assay.

SMILES strings stand for the structures. Read-outs that look alike come from different tables or passages of the source.

Consider `CC(C)(C)n1nc(Cc2cccc3ccccc23)c2c(N)ncnc21` [Compound 7], for which the result in test [1] was active. For the same compound, the “gamma interferon signaling inhibitor classification” value in the test with IFN-gamma signaling is “interferon gamma signaling inhibitor”.

For `Cc1cc(-c2nn(C(C)(C)C)c3ncnc(N)c23)cc2ccccc12` [Compound 8], the result in test [1] was active. In the test on IFN-gamma signaling, the “gamma interferon signaling inhibitor classification” value is “interferon gamma signaling inhibitor”.

Regarding `Cc1ccc(-c2nn(C(C)(C)C)c3ncnc(N)c23)c2ccccc12` [Compound 9], the result in test [1] was active. Besides, the “gamma interferon signaling inhibitor classification” value in the test on IFN-gamma signaling was “interferon gamma signaling inhibitor”.

Regarding `CC(C)(C)n1nc(-c2ccc3ccccc3c2)c2c(N)ncnc21` [Compound 10], in test [1], the result was active. Besides, the “T cell activation inhibitor classification” value with T cell activation (setting [3]) is given as “T cell activation inhibitor”.

Take `CC(C)(C)n1nc(-c2ccc3c4c(cccc24)CC3)c2c(N)ncnc21` [Compound 11]: in test [1], the outcome was active. The “gamma interferon signaling inhibitor classification” value in the test with IFN-gamma signaling is “interferon gamma signaling inhibitor”.

As to `CC(C)(C)n1nc(-c2ccc(F)c3ccccc23)c2c(N)ncnc21` [Compound 12], in test [1], the outcome was active. Further, the “gamma interferon signaling inhibitor classification” value in the test on IFN-gamma signaling is on record as “interferon gamma signaling inhibitor”.

Turning to `Cc1ccc(-c2nn(C(C)(C)C)c3ncnc(N)c23)cc1` [Compound 13, PP1, reference compound], the “T cell activation inhibitor classification” value in the test on T cell activation is on record as “T cell activation inhibitor”.

In the case of `CC(C)(C)n1nc(-c2ccc3c(c2)OCO3)c2c(N)ncnc21` [Compound 15], the result in test [1] was active. Moreover, the “T cell activation inhibitor classification” value in the test on T cell activation (setting [3]) is given as “T cell activation inhibitor”.

In the case of `CC(C)(C)n1nc(-c2cccc(N)c2)c2c(N)ncnc21` [Compound 17], in test [1], the result was active. For the same compound, the “T cell activation inhibitor classification” value in the test with T cell activation (setting [3]) was “T cell activation inhibitor”.

On to `CC(C)(C)n1nc(-c2cccc3ccccc23)c2c(N)ncnc21` [Compound 19], for which the outcome in test [1] was active. The “gamma interferon signaling inhibitor classification” value in the test with IFN-gamma signaling is reported as “interferon gamma signaling inhibitor”.

In the case of `CC(C)(C)n1nc(Cc2ccccc2Cl)c2c(N)ncnc21` [Compound 30], the outcome in test [1] was active. Also, in test [2], the monocyte recruitment result is given as “reduce”, the neutrophil recruitment result was “reduce” and the “total number of leukocytes” value is “reduce”. Besides, the “monocyte activation inhibitor classification” value with monocyte activation was “monocyte activation inhibitor”.

Regarding `CC(C)(C)n1nc(-c2cccc(O)c2)c2c(N)ncnc21` [Compound 41], in test [1], the result was active. For the same compound, in the test with T cell activation (setting [3]), the “T cell activation inhibitor classification” value is given as “T cell activation inhibitor”.

Take `Cn1nc(-c2ccc3ccccc3c2)c2c(N)ncnc21` [Compound 48]: the result in test [1] was active. Besides, the “T cell activation inhibitor classification” value in the test on T cell activation (setting [3]) is given as “T cell activation inhibitor”.

For the compound `CC(C)n1nc(-c2cccc(O)c2)c2c(N)ncnc21` [Compound 54], in test [1], the result was active. In addition, the “T cell activation inhibitor classification” value in the test with T cell activation (setting [3]) is “T cell activation inhibitor”.

For the compound `CNc1ncnc2c1c(Cc1ccccc1Cl)nn2C(C)(C)C` [Compound 76], the result in test [1] was active. In addition, the “monocyte activation inhibitor classification” value with monocyte activation is “monocyte activation inhibitor”.
